Molecules are shown by their SMILES.

The target in one experiment is wild-type 80 queC RNA. In words: In-line probing analysis of wild-type 80 queC RNA. The format is binding, B. subtilis. The conditions noted are these: for structure modulation: wild-type 80 queC, 200 μM. The text has this: This possibility was examined by comparing the ligand binding characteristics of a wild-type queC construct (80 queC) with those of two mutant RNAs in which absolutely conserved cytidine residues were individually replaced with uridines (FIG. 6a). 2,6-diaminopurine was included in the panel of test compounds since it was previously established that the 2-amino group was critical for ligand recognition by the preQ1 aptamer (FIG. 4c). It was therefore anticipated that compounds lacking this moiety, such as adenine or 7-aminomethyl-7-deazaadenine, might not bind detectably, despite their potential for base pairing with a uridyl discriminator residue.
(§1) In-line probing analysis. […] .

In experiment [1] the test system is M1 RNA (80 queC, cytidine 34 replaced with uridine). The experiment can be described thus: In-line probing analysis of 80 queC mutant M1. The format is binding, B. subtilis. The conditions noted are these: for structure modulation: 200 μM.
Another experiment has as its system 106 queC RNA. The experiment can be described thus: Equilibrium dialysis, competition with 3H-guanine. The format is binding, B. subtilis. The conditions noted are these: 100 nM 3H-guanine, 20 μM RNA, unlabeled compound at a concentration exceeding that of the RNA. The text has this:
To provide additional support for a specific physical interaction between preQ1 and the queC RNA motif, competitive binding experiments were done using an equilibrium dialysis apparatus containing two chambers separated by a permeable membrane with a molecular weight cut-off of 5000 Daltons (FIG. 4d). Because guanine is recognized by the queC motif with nanomolar affinity (FIG. 4c), we first added ^3H-guanine and a molar excess of 106 queC RNA individually to the respective chambers. […].
Samples containing either 100 nM ^3H-guanine or 20 μM 106 queC RNA, each prepared in the same buffer solution used for in-line probing, were added in 30 μL volumes to opposite chambers of a DispoEquilibrium Dialyzer (ED-1, Harvard Bioscience). Following equilibration at 25° C. for 10-15 h, aliquots of 5 μL were withdrawn and quantitated with a liquid scintillation counter. For competitive binding experiments, 3 μL of buffer containing 1 mM unlabeled test compound was subsequently delivered to the RNA-containing chamber, while the same volume of buffer was added to the opposite chamber. After another equilibration period, 5 μL aliquots were again removed to assess the distribution of ^3H-guanine.
(In general: In equilibrium dialysis free small molecules cross a membrane that holds back macromolecules.)

The subject of experiment [2] is queC RNA construct containing the analogous C34U mutation. In words: In-line probing of a queC RNA construct with the analogous C34U mutation. In kind it is binding. The conditions noted are these: concentrations as high as 1 mM.
Description: as §1

The target in experiment [3] is 52 queC RNA (B. subtilis queC element). In words: In-line probing analysis of 52 queC RNA. As to conditions: in-line probing over a range of ligand concentrations, read-out: Kd (apparent). The format is binding.
Description: RNA construct 52 queC (FIG. 4a) was used to examine the degree of ligand selectivity of the B. subtilis queC element. Affinities for various purine compounds were determined by subjecting 5′ ^32P-labeled 52 queC to in-line probing analyses using a range of ligand concentrations, followed by the quantitative analysis of the levels of ligand-dependent structure modulation.
A more detailed understanding of the molecular contacts involved in ligand recognition by 52 queC was obtained by determining the apparent Kd values for a series of purine analogs (FIG. 4c).

Consider `Nc1nc(N)c2[nH]cnc2n1` [2,6-diaminopurine], for which the Kd at wild-type 80 queC RNA (80 queC) is greater than 300000 nM; in experiment [1] (M1 (C34U), data not shown) it was greater than 300000 nM. The “lowest concentration at which alterations in structure are detected” value with wild-type 80 queC RNA (80 queC) worked out at 10 µM. Also, the structure modulation result is “Structural changes in this construct are also induced” with wild-type 80 queC RNA and “key changes are observed” in experiment [1] (M1 (C34U)). Besides, the “relative loss in binding affinity” value in experiment [1] (C34U mutant with 2,6-diaminopurine versus wild-type queC RNA with guanine) is recorded as “more than 600 fold”.

Regarding `Nc1nc2c(c(=O)[nH]1)CC=N2` [7-deazaguanine], the “competition with 3H-guanine sequestration in the RNA chamber” value (“competition” for short) in the experiment with 106 queC RNA was “competitively reversed”.

Take `NCC1C=Nc2ncnc(N)c21` (stereo not shown) [7-aminomethyl-7-deazaadenine]: the “modulation of RNA structure” value in experiment [2] is listed as “fail to modulate the structure”.

For the compound `N#CC1C=Nc2nc(N)[nH]c(=O)c21` (stereo not shown) [preQ0, 7-cyano-7-deazaguanine], the Kd in experiment [3] is roughly 100 nM.

`Nc1nc2nc[nH]c2c(=O)[nH]1` [guanine]: the Kd in experiment [3] is roughly 500 nM. In addition, the structure modulation entry in the experiment with wild-type 80 queC RNA was “structure modulation occurs”. The “competition” value with 106 queC RNA is given as “competitively reversed”.

For the compound `Nc1ncnc2nc[nH]c12` [adenine], the structure modulation entry in the experiment with wild-type 80 queC RNA is reported as “does not result in structure modulation”; in experiment [1] (M1 (C34U)), “failure of adenine to induce any conformational response”. Besides, in experiment [1] (M1 (C34U), in words), the “binding to M1 RNA” value is listed as “absence of adenine binding”. The “competition” value in the experiment with 106 queC RNA is “did not serve as a competitor”.

The values are drawn from patent US20130012527A1, “PREQ1 RIBOSWITCHES AND METHODS AND COMPOSITIONS FOR USE OF AND WITH PREQ1 RIBOSWITCHES” (YALE UNIVERSITY, priority 2007, published 2013).
